# Laboratory results reported in patent publication US12052991B2, “Substituted pyridinyloxybenzenes and salts thereof and use thereof as herbicidal agents” (Bayer Aktiengesellschaft, priority 2018, dated 2024).
# Tests used:
# Assay type in all cases: in vivo
# [1] = tested on: Amaranthus retroflexus (AMARE); experiment: Herbicidal pre-emergence action, test C (Table C6); conditions: visual scoring after about 3 weeks, 100% = plants have died, 0% = like control plants
# Summary of the method: (§1)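 Sandy loam, doubly sown pots; surface spray pre-emergence; 1280 or 320 g/ha; 0.5% additive; 600 L/ha. Greenhouse, ~3 weeks. Visual % vs untreated.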
# [2] = tested on: Echinochloa crus-galli (ECHCG); experiment: Herbicidal pre-emergence action, test C (Table C1); conditions: dosage 1280 g/ha; visual scoring after about 3 weeks; 100% = plants have died, 0% = like control plants
# Summary of the method: as §1
# [3] = tested on: Digitaria sanguinalis (DIGSA); experiment: Herbicidal post-emergence action (Table B10); conditions: visual rating about 3 weeks after treatment, 100% = plants have died, 0% = like control plants
# Summary of the method: (§2)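 Weeds grown from seed in sandy loam in the greenhouse were sprayed at the one-leaf stage, 2 to 3 weeks after sowing, with WP or EC formulations in water plus 0.5% additive at 600 L/ha. Rates corresponded to 1280 or 320 g/ha; damage was rated visually versus untreated controls after about 3 weeks.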
# [4] = tested on: Abutilon theophrasti (ABUTH); experiment: Herbicidal post-emergence action (Table B5); conditions: rated visually after about 3 weeks, 100% = plants have died, 0% = like control plants
# Summary of the method: as §2
# [5] = tested on: harmful plants ABUTH, AMARE, ECHCG, LOLRI, MATIN, POAAN, SETVI, STEME, ALOMY, DIGSA, KCHSC and VERPE; experiment: Herbicidal pre-emergence action (test C), summary of Tables C1-C12; conditions: application rate of 1280 or 320 g of active ingredient per hectare; summary in words
# Summary of the method: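 Pre-emergence pot test in sandy loam: WP or EC formulations were sprayed onto the covering soil with 0.5% additive at 600 L/ha water, at 1280 or 320 g/ha. Plants were kept in the greenhouse, and activity was rated visually about 3 weeks later as % versus untreated controls (100% = dead).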
# [6] = tested on: Poa annua (POAAN); experiment: Herbicidal post-emergence action (Table B3); conditions: rated visually after about 3 weeks, 100% = plants have died, 0% = like control plants
# Summary of the method: as §2
# [7] = tested on: harmful plants ABUTH, AMARE, ECHCG, LOLRI, MATIN, POAAN, SETVI, STEME, ALOMY, DIGSA, KCHSC and VERPE; experiment: Herbicidal post-emergence action, summary of Tables B1-B12; conditions: application rate of 1280 or 320 g of active ingredient per hectare; summary in words
# Summary of the method: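 Greenhouse weeds in sandy loam treated post-emergence at the one-leaf stage, 2–3 weeks after sowing, with WP or EC formulations sprayed with 0.5% additive at 600 L/ha water, 1280 or 320 g/ha. Damage rated visually after about 3 weeks versus untreated controls (0% = like control, 100% = dead).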
# [8] = tested on: Matricaria inodora (MATIN); experiment: Herbicidal pre-emergence action, test C (Table C7); conditions: visual scoring after about 3 weeks, 100% = plants have died, 0% = like control plants
# Summary of the method: as §1
# [9] = tested on: Echinochloa crus-galli (ECHCG); experiment: Herbicidal post-emergence action (Table B1); conditions: rated visually after about 3 weeks, 100% = plants have died, 0% = like control plants
# Summary of the method: as §2
# [10] = tested on: Lolium rigidum (LOLRI); experiment: Herbicidal pre-emergence action, test C (Table C2); conditions: visual scoring after about 3 weeks, 100% = plants have died, 0% = like control plants
# Summary of the method: as §1
# [11] = tested on: Poa annua (POAAN); experiment: Herbicidal pre-emergence action, test C (Table C3); conditions: visual scoring after about 3 weeks, 100% = plants have died, 0% = like control plants
# Summary of the method: as §1
# [12] = tested on: Alopecurus myosuroides (ALOMY); experiment: Herbicidal pre-emergence action, test C (Table C9); conditions: visual scoring after about 3 weeks, 100% = plants have died, 0% = like control plants
# Summary of the method: as §1
# [13] = tested on: Setaria viridis (SETVI); experiment: Herbicidal post-emergence action (Table B4); conditions: 1280 g/ha; rated visually after about 3 weeks; 100% = plants have died, 0% = like control plants
# Summary of the method: as §2
# [14] = tested on: Amaranthus retroflexus (AMARE); experiment: Herbicidal post-emergence action (Table B6); conditions: visual rating about 3 weeks after treatment, 100% = plants have died, 0% = like control plants
# Summary of the method: as §2
# [15] = tested on: Stellaria media (STEME); experiment: Herbicidal pre-emergence action, test C (Table C8); conditions: visual scoring after about 3 weeks, 100% = plants have died, 0% = like control plants
# Summary of the method: as §1
# [16] = tested on: Alopecurus myosuroides (ALOMY); experiment: Herbicidal post-emergence action (Table B9); conditions: rated visually after about 3 weeks, 100% = plants have died, 0% = like control plants
# Summary of the method: as §2
# [17] = tested on: Setaria viridis (SETVI); experiment: Herbicidal pre-emergence action, test C (Table C4); conditions: visual scoring after about 3 weeks, 100% = plants have died, 0% = like control plants
# Summary of the method: as §1
# [18] = tested on: Matricaria inodora (MATIN); experiment: Herbicidal post-emergence action (Table B7); conditions: 1280 g/ha; rated visually after about 3 weeks; 100% = plants have died, 0% = like control plants
# Experimental: Seeds of mono- and dicotyledonous weed plants were placed in plastic pots in sandy loam soil (doubly sown with in each case one species of mono- or dicotyledonous weed plants per pot), covered with soil and cultivated in a greenhouse under controlled growth conditions. 2 to 3 weeks after sowing, the test plants were treated at the one-leaf stage. The compounds of the invention, formulated in the form of wettable powders (WP) or as emulsion concentrates (EC), were applied onto the green parts of the plants as aqueous suspension or emulsion with addition of 0.5% additive at a water application rate of 600 liters per hectare (converted). After the test plants had been kept in the greenhouse under optimum growth conditions for about 3 weeks, the activity of the preparations was rated visually in comparison to untreated controls. For example, 100% activity=the plants have died, 0% activity=like control plants. Tables B1 to B12 below show the effects of selected compounds of the general formula (I) according to Table 1 on various harmful plants and an application rate corresponding to 1280 or 320 g/ha, which were obtained by the experimental procedure mentioned above.
# [19] = tested on: Veronica persica (VERPE); experiment: Herbicidal pre-emergence action, test C (Table C12); conditions: visual scoring vs untreated controls
# Summary of the method: as §1
# [20] = tested on: Digitaria sanguinalis (DIGSA); experiment: Herbicidal pre-emergence action, test C (Table C10); conditions: visual scoring after about 3 weeks, 100% = plants have died, 0% = like control plants
# Summary of the method: as §1
# [21] = tested on: Stellaria media (STEME); experiment: Herbicidal post-emergence action (Table B8); conditions: visual rating about 3 weeks after treatment, 100% = plants have died, 0% = like control plants
# Summary of the method: as §2
# [22] = tested on: Bassia scoparia (KCHSC); experiment: Herbicidal post-emergence action (Table B11); conditions: visual rating about 3 weeks after treatment, 100% = plants have died, 0% = like control plants
# Summary of the method: as §2
# [23] = tested on: Veronica persica (VERPE); experiment: Herbicidal post-emergence action (Table B12); conditions: visual rating about 3 weeks after treatment, 100% = plants have died, 0% = like control plants
# Summary of the method: as §2
# [24] = tested on: Abutilon theophrasti (ABUTH); experiment: Herbicidal pre-emergence action, test C (Table C5); conditions: dosage 1280 g/ha; visual scoring after about 3 weeks; 100% = plants have died, 0% = like control plants
# Summary of the method: as §1
SMILES,Pre-emergence action against Amaranthus retroflexus (AMARE) ([1]; dosage 320 g/ha) [%],Pre-emergence action against Amaranthus retroflexus (AMARE) ([1]; dosage 1280 g/ha) [%],Pre-emergence action against Echinochloa crus-galli (ECHCG) [2] [%],Post-emergence action against Digitaria sanguinalis (DIGSA) ([3]; dosage 320 g/ha) [%],Post-emergence action against Digitaria sanguinalis (DIGSA) ([3]; dosage 1280 g/ha) [%],Post-emergence action against Abutilon theophrasti (ABUTH) ([4]; 320 g/ha) [%],Post-emergence action against Abutilon theophrasti (ABUTH) ([4]; 1280 g/ha) [%],herbicidal activity against the harmful plants of Tables C1-C12 in pre-emergence treatment [5],Post-emergence action against Poa annua (POAAN) ([6]; 320 g/ha) [%],Post-emergence action against Poa annua (POAAN) ([6]; 1280 g/ha) [%],herbicidal activity against the harmful plants of Tables B1-B12 in post-emergence treatment [7],Pre-emergence action against Lolium rigidum (LOLRI) ([10]; dosage 1280 g/ha) [%],Pre-emergence action against Alopecurus myosuroides (ALOMY) ([12]; dosage 320 g/ha) [%],Pre-emergence action against Alopecurus myosuroides (ALOMY) ([12]; dosage 1280 g/ha) [%],Post-emergence action against Amaranthus retroflexus (AMARE) ([14]; dosage 320 g/ha) [%],Post-emergence action against Amaranthus retroflexus (AMARE) ([14]; dosage 1280 g/ha) [%],Pre-emergence action against Stellaria media (STEME) ([15]; dosage 320 g/ha) [%],Pre-emergence action against Stellaria media (STEME) ([15]; dosage 1280 g/ha) [%],Post-emergence action against Alopecurus myosuroides (ALOMY) ([16]; 1280 g/ha) [%],Pre-emergence action against Setaria viridis (SETVI) ([17]; dosage 320 g/ha) [%],also measured
FC(F)c1cc(-c2c(Br)cccc2Oc2ccc(Cl)cn2)on1 [Example 1-53],100,100,90,100,100,100,100,very good herbicidal activity,100,100,very good herbicidal activity,100,100,100,100,100,100,100,100,100,Pre-emergence action against Matricaria inodora (MATIN) ([8]; dosage 320 g/ha): 100%; Pre-emergence action against Matricaria inodora (MATIN) ([8]; dosage 1280 g/ha): 100%; Post-emergence action against Echinochloa crus-galli (ECHCG) ([9]; 320 g/ha): 100%; Post-emergence action against Echinochloa crus-galli (ECHCG) ([9]; 1280 g/ha): 100%; Pre-emergence action against Lolium rigidum (LOLRI) ([10]; dosage 320 g/ha): 90%; Pre-emergence action against Poa annua (POAAN) ([11]; dosage 320 g/ha): 100%; Pre-emergence action against Poa annua (POAAN) ([11]; dosage 1280 g/ha): 100%; Post-emergence action against Setaria viridis (SETVI) [13]: 100%; Pre-emergence action against Setaria viridis (SETVI) ([17]; dosage 1280 g/ha): 100%; Post-emergence action against Matricaria inodora (MATIN) [18]: 100%; Pre-emergence action against Veronica persica (VERPE) ([19]; dosage 320 g/ha): 100%; Pre-emergence action against Veronica persica (VERPE) ([19]; dosage 1280 g/ha): 100%; Pre-emergence action against Digitaria sanguinalis (DIGSA) ([20]; dosage 1280 g/ha): 100%; Post-emergence action against Stellaria media (STEME) ([21]; dosage 1280 g/ha): 90%; Post-emergence action against Bassia scoparia (KCHSC) ([22]; dosage 320 g/ha): 90%; Post-emergence action against Bassia scoparia (KCHSC) ([22]; dosage 1280 g/ha): 100%
CCc1cccc(Oc2ccc(Cl)cn2)c1-c1cc(C(F)F)no1 [Example 1-59],100,100,90,100,100,100,100,very good herbicidal activity,100,100,very good herbicidal activity,100,100,100,90,100,100,100,100,100,Post-emergence action against Alopecurus myosuroides (ALOMY) ([16]; 320 g/ha): 100%; Pre-emergence action against Setaria viridis (SETVI) ([17]; dosage 1280 g/ha): 100%; Post-emergence action against Veronica persica (VERPE) ([23]; dosage 320 g/ha): 100%; Post-emergence action against Veronica persica (VERPE) ([23]; dosage 1280 g/ha): 100%; Post-emergence action against Matricaria inodora (MATIN) [18]: 100%; Pre-emergence action against Abutilon theophrasti (ABUTH) [24]: 90%; Pre-emergence action against Veronica persica (VERPE) ([19]; dosage 320 g/ha): 100%; Pre-emergence action against Veronica persica (VERPE) ([19]; dosage 1280 g/ha): 100%; Pre-emergence action against Digitaria sanguinalis (DIGSA) ([20]; dosage 320 g/ha): 100%; Pre-emergence action against Digitaria sanguinalis (DIGSA) ([20]; dosage 1280 g/ha): 100%; Post-emergence action against Stellaria media (STEME) ([21]; dosage 320 g/ha): 100%; Post-emergence action against Stellaria media (STEME) ([21]; dosage 1280 g/ha): 100%; Post-emergence action against Bassia scoparia (KCHSC) ([22]; dosage 1280 g/ha): 90%
